Reference: ChEMBL document CHEMBL4765365, “Design, synthesis and antitumour evaluation of pyrrolo[1,2-f]-phenanthridine and dibenzo[f,h]pyrrolo[1,2-b]isoquinoline derivatives” (Eur J Med Chem, 2020)

How the values were obtained:
[1] = tested on: NCI-H460; test: Induction of cell cycle arrest in human NCI-H460 cells assessed as G2/M phase at 3 uM incubated for 24 hrs by PI staining based flow cytometry analysis (reference value: 21 +/- 6.7 %); format: functional
[2] = tested on: NCI-H460; test: Induction of cell cycle arrest in human NCI-H460 cells assessed as G1 phase at 3 uM incubated for 36 hrs by PI staining based flow cytometry analysis (reference value: 57.9 +/- 3.6 %); format: functional
[3] = tested on: NCI-H460; test: Induction of cell cycle arrest in human NCI-H460 cells assessed as G0 phase at 0.75 uM incubated for 24 hrs by PI staining based flow cytometry analysis (reference value: 1.6 +/- 0.6 %); format: functional
[4] = tested on: HCT-116; test: Induction of cell cycle arrest in human HCT-116 cells assessed as G0 phase at 0.75 uM incubated for 12 hrs by PI staining based flow cytometry analysis (reference value: 2.2 +/- 1.7 %); format: functional
[5] = tested on: NCI-H460; test: Induction of apoptosis in human NCI-H460 cells assessed as viable cells at 1.5 uM incubated for 48 hrs by annexin V-FITC and PI staining based flow cytometry analysis (reference value: 90.1 %); format: functional; conditions: read-out: Activity
[6] = tested on: NCI-H460; test: Induction of cell cycle arrest in human NCI-H460 cells assessed as G0 phase at 3 uM incubated for 24 hrs by PI staining based flow cytometry analysis (reference value: 1.6 +/- 0.6 %); format: functional
[7] = tested on: NCI-H460; test: Induction of apoptosis in human NCI-H460 cells assessed as late apoptotic cells at 6 uM incubated for 48 hrs by annexin V-FITC and PI staining based flow cytometry analysis (reference value: 7.3 %); format: functional
[8] = tested on: HCT-116; test: Induction of cell cycle arrest in human HCT-116 cells assessed as S phase at 0.75 uM measured at 0 hrs by PI staining based flow cytometry analysis (reference value: 12.4 +/- 6.2 %); format: functional
[9] = tested on: NCI-H460; test: Induction of cell cycle arrest in human NCI-H460 cells assessed as G2/M phase at 0.75 uM incubated for 12 hrs by PI staining based flow cytometry analysis (reference value: 22.9 +/- 6.8 %); format: functional
[10] = tested on: NCI-H1650; test: Cytotoxicity against human NCI-H1650 cells assessed as reduction in cell viability incubated for 72 hrs by XTT assay; format: functional, cell-based; conditions: NCI-H1650, 72 h
[11] = tested on: NCI-H460; test: Induction of cell cycle arrest in human NCI-H460 cells assessed as S phase at 1.5 uM incubated for 12 hrs by PI staining based flow cytometry analysis (reference value: 11.2 +/- 4.3 %); format: functional
[12] = tested on: NCI-H460; test: Induction of apoptosis in human NCI-H460 cells assessed as necrotic cells at 3 uM incubated for 48 hrs by annexin V-FITC and PI staining based flow cytometry analysis (reference value: 0.7 %); format: functional
[13] = tested on: HCT-116; test: Induction of cell cycle arrest in human HCT-116 cells assessed as G0 phase at 0.375 uM incubated for 24 hrs by PI staining based flow cytometry analysis (reference value: 12.5 +/- 5.4 %); format: functional
[14] = tested on: NCI-H460; test: Induction of cell cycle arrest in human NCI-H460 cells assessed as G1 phase at 0.75 uM incubated for 24 hrs by PI staining based flow cytometry analysis (reference value: 56.8 +/- 7.6 %); format: functional
[15] = tested on: NCI-H460; test: Induction of apoptosis in human NCI-H460 cells assessed as early apoptotic cells at 6 uM incubated for 48 hrs by annexin V-FITC and PI staining based flow cytometry analysis (reference value: 2 %); format: functional
[16] = tested on: NCI-H460; test: Induction of cell cycle arrest in human NCI-H460 cells assessed as G0 phase at 3 uM incubated for 36 hrs by PI staining based flow cytometry analysis (reference value: 2.8 +/- 0.7 %); format: functional
[17] = tested on: HCT-116; test: Induction of cell cycle arrest in human HCT-116 cells assessed as G0 phase at 1.5 uM incubated for 12 hrs by PI staining based flow cytometry analysis (reference value: 2.2 +/- 1.7 %); format: functional
[18] = tested on: HCT-116; test: Induction of cell cycle arrest in human HCT-116 cells assessed as S phase at 1.5 uM incubated for 36 hrs by PI staining based flow cytometry analysis (reference value: 7.9 +/- 3.7 %); format: functional
[19] = tested on: HCT-116; test: Induction of cell cycle arrest in human HCT-116 cells assessed as S phase at 1.5 uM incubated for 24 hrs by PI staining based flow cytometry analysis (reference value: 21.2 +/- 5.4 %); format: functional
[20] = tested on: NCI-H460; test: Induction of cell cycle arrest in human NCI-H460 cells assessed as G2/M phase at 1.5 uM measured at 0 hrs by PI staining based flow cytometry analysis (reference value: 25.2 +/- 4 %); format: functional
[21] = tested on: HCT-116; test: Induction of cell cycle arrest in human HCT-116 cells assessed as S phase at 0.75 uM incubated for 36 hrs by PI staining based flow cytometry analysis (reference value: 7.9 +/- 3.7 %); format: functional
[22] = tested on: HCT-116; test: Induction of cell cycle arrest in human HCT-116 cells assessed as S phase at 0.375 uM measured at 0 hrs by PI staining based flow cytometry analysis (reference value: 12.4 +/- 6.2 %); format: functional
[23] = tested on: HCT-116; test: Antitumor activity against human HCT-116 cells xenografted in nude mouse assessed as reduction in tumor size at 30 mg/kg, iv administered for 5 days and repeated cycle for 2 days interval and measured on day 24; format: functional; conditions: HCT-116, iv, 576 h, time 24 day, read-out: TGI
[24] = tested on: NCI-H460; test: Induction of cell cycle arrest in human NCI-H460 cells assessed as G1 phase at 0.75 uM incubated for 36 hrs by PI staining based flow cytometry analysis (reference value: 57.9 +/- 3.6 %); format: functional
[25] = tested on: HCT-116; test: Induction of cell cycle arrest in human HCT-116 cells assessed as G0 phase at 0.75 uM incubated for 36 hrs by PI staining based flow cytometry analysis (reference value: 2.5 +/- 0.8 %); format: functional
[26] = tested on: HCT-116; test: Induction of cell cycle arrest in human HCT-116 cells assessed as S phase at 0.75 uM incubated for 12 hrs by PI staining based flow cytometry analysis (reference value: 15.5 +/- 0.2 %); format: functional
[27] = tested on: NCI-H460; test: Induction of cell cycle arrest in human NCI-H460 cells assessed as G0 phase at 1.5 uM incubated for 36 hrs by PI staining based flow cytometry analysis (reference value: 2.8 +/- 0.7 %); format: functional
[28] = tested on: NCI-H460; test: Induction of cell cycle arrest in human NCI-H460 cells assessed as G2/M phase at 3 uM incubated for 36 hrs by PI staining based flow cytometry analysis (reference value: 25 +/- 1.2 %); format: functional
[29] = tested on: HCT-116; test: Induction of cell cycle arrest in human HCT-116 cells assessed as G0 phase at 0.375 uM measured at 0 hrs by PI staining based flow cytometry analysis (reference value: 0.7 +/- 0.2 %); format: functional
[30] = tested on: HCT-116; test: Induction of cell cycle arrest in human HCT-116 cells assessed as G1 phase at 0.75 uM incubated for 36 hrs by PI staining based flow cytometry analysis (reference value: 57.4 +/- 1.3 %); format: functional
[31] = tested on: NCI-H460; test: Induction of cell cycle arrest in human NCI-H460 cells assessed as G1 phase at 1.5 uM measured at 0 hrs by PI staining based flow cytometry analysis (reference value: 53.4 +/- 4.8 %); format: functional

OCc1cn2c3ccccc3c3ccccc3c2c1CO
Activity [1]: 30% | Activity [2]: 51.8% | Activity [3]: 1.8% | Activity [4]: 1.7% | viability at 1.5 µM [5]: 82.2% | Activity [6]: 5.2% | Activity [7]: 55.8% | Activity [8]: 12.6% | Activity [9]: 23.7% | IC50 [10]: 3.73 µM | Activity [11]: 16.3% | Activity [12]: 1.6% | Activity [13]: 13.8% | Activity [14]: 54% | Activity [15]: 29.2% | Activity [16]: 8.7% | Activity [17]: 1.9% | Activity [18]: 6.1% | Activity [19]: 5.7% | Activity [20]: 23.9% | Activity [21]: 5.1% | Activity [22]: 12.4% | inhibition in vivo at 30 mg/kg [23]: 72% | Activity [24]: 67.8% | Activity [25]: 6.9% | Activity [26]: 16.9% | Activity [27]: 3.3% | Activity [28]: 25.6% | Activity [29]: 0.6% | Activity [30]: 65.1% | Activity [31]: 55.5%
